Patent US20060004086A1, “Method of reducing Abeta42 and treating diseases” (Mayo Foundation for Medical Education and Research, priority 2000, published 2006)
“Also recorded” adds a separate entry of the source. Read-outs that look alike come from different tables or passages of the source.

Assays:
Aβ42 production = Aβ42 production in APP695-transfected H4 cells; type: cell-based, human
Procedure: In a tertiary screen, Aβ production, sAPP production, and toxicity in a human H4 neuroglioma cell line that expressed APP are examined for all FDA-approved NSAIDs and novel NSAIDs that selectively reduce Aβ42 levels. Three doses of each NSAID are tested. The first is a dose that is expected to cause maximum reduction of Aβ42 levels. The second dose is one that reduces Aβ42 levels by 50% of the maximum value, while the third dose is one that reduces Aβ42 levels by 10-20% of the maximum value.

Aβ42 secretion [1] = assay: Aβ40/Aβ42 ELISA of culture supernatants, CHO cells expressing APP751; type: cell-based, Chinese hamster
Procedure: (§1) Cell cultures were maintained in standard cell culture media supplemented with 10% fetal bovine serum and 100 U/mL penicillin/streptomycin (Life Technologies Inc., Germany).
(§2) For analyses of Aβ secretion, APP processing, and notch cleavage, cells were cultured in serum-containing media and pretreated overnight with a specific NSAID. The next day, media were changed and cultures were treated with the same NSAID for another 24 hours.
(§3) Aβ was detected by sandwich enzyme-linked immunosorbent assay (ELISA) as described by Murphy et al. (2000) J Biol Chem 275:26277-84. Following NSAID treatment, culture supernatants were collected, and cell debris was removed by centrifugation. Complete protease inhibitor cocktail (Roche Molecular Biochemicals, IN, USA) was added to the media and Aβ40 and Aβ42 levels were quantified using end-specific Aβ ELISAs. All measurements were performed in duplicate.
The effect of sulindac sulfone on Aβ42 secretion was examined. Sulindac sulfone is an oxidation product of the pro-drug sulindac. […] Cell cultures were treated with increasing concentrations of sulindac sulfone. Aβ40 and Aβ42 levels in culture supernatants were analyzed using ELISA.
(§4) Aβ40 and Aβ42 levels in cell culture supernatants were analyzed using ELISA. Aβ42/Aβ40 ratios and total Aβ levels were normalized to values obtained from DMSO-treated cultures. […] NSAIDs were verified using NMR and mass spectrometry.

Aβ42 secretion [2] = assay: Non-selective and selective COX-inhibitors tested for effect on Aβ42 levels in cell cultures (Table 1 summary); type: cell-based; conditions: for Aβ42/Aβ40 ratio: effect up to the highest conc. tested listed per drug in Table 1
Procedure: All measurements were performed in duplicate.
as §4

Aβ42 secretion [3] = assay: Primary in vitro screen, CHO-APP695NL,I,his cells, end-specific Aβ40 and Aβ42 ELISAs; type: cell-based, Chinese hamster; conditions: for activity at 100 µM / activity at 10 µM: Cricetulus griseus, 6 h
Procedure: Aβ40 and Aβ42 levels in culture supernatants were determined for each time points using ELISA.
In a primary screen, the effects of NSAIDs on Aβ42 secretion by a CHO cell line that expressed APP(CHO-APP695NL,I,his) were examined. Duplicate cell cultures were treated with (a) a vehicle, (b) 10 μM of NSAID, or (c) 100 μM of NSAID.
To determine Aβ40 and Aβ42 levels, six-hour culture supernatants taken from cells grown in a single well of a twenty-four-well plate were used in end-specific Aβ40 and Aβ42 ELISAs (Suzuki, et al. (1994) Sci 264:[…]). Aβ40 and Aβ42 levels of cultures treated with NSAID were compared with those of cultures treated with the vehicle alone. […] NSAIDs that caused either selective reduction of Aβ42 levels or reduction in both Aβ40 and Aβ42 levels are subjected to a secondary screen.

[4] = plasma concentration of the drug; cited from earlier work
COX-1/COX-2 = conditions: cited from earlier work
[5] = test system: brain Aβ42 levels in Tg2576 mice; assay: Acute oral dosing of three-month-old Tg2576 mice, brain Aβ ELISA; type: in vivo, mouse; conditions: for brain Aβ42 levels: three-month old Tg2576 mice, 100 mg/kg/day orally for three days, compared with vehicle
Procedure: NSAIDs were dissolved in an appropriate vehicle. Dimethyl sulfoxide (DMSO), ethanol, and ethyl acetate are some examples. The NSAID solution was mixed with Kool-Aid and administered orally using a medicine dropper. […] At two hours after the final doses were administered, animals were sacrificed, and SDS soluble Aβ40 and Aβ42 were analyzed using ELISA.
Three month old mice have high levels of soluble Aβ in the brain but no Aβ deposition (see Hsiao et al. (1996) Science 274:99-102). […] Brain levels of SDS-soluble Aβ40 and Aβ42 were measured using ELISA.
Compounds were administered orally.

Aβ42 secretion [6] = assay: Aβ40/Aβ42 ELISA of culture supernatants, CHO cells expressing APP751 and PS-1 mutant M146L; type: cell-based, Chinese hamster; conditions: concentrations up to 100 μM
Procedure: as §1, §2, §3
Levels of Aβ40 and Aβ42 in culture supernatants were analyzed using ELISA. […] Aβ42/Aβ40 ratios and total Aβ levels (i.e., the sum of Aβ40 and Aβ42 values) were normalized to values obtained from DMSO-treated cells. Results shown were averages of two or three experiments performed in duplicate.
Aβ40 and Aβ42 levels in culture supernatants were analyzed using ELISA as described in Example 3. […] Aβ42/Aβ40 ratios and total Aβ levels were normalized to values obtained from ethanol-treated cells. Results shown were averages of two or three experiments, each performed in duplicate.

APP processing = assay: Western blot of APP, APP CTFs and sAPP, CHO cells expressing APP751; type: cell-based, Chinese hamster; conditions: 150 μM; data not shown
Source text: Expression of holo-APP and APP C-terminal fragments (CTFs) was examined by Western blot analysis using antibody CT-15. APP secretion was examined by Western blotting using a mixture of 5A3/IG7 antibodies. APP turnover was examined by pulse labeling of CHO cells with 150 μCi [^35S]-methionine for fifteen minutes followed by a cold chase step for up to four hours. Cell lysates were immunoprecipitated with antibody CT-15, subjected to SDS-PAGE, and analyzed by phosphor imaging.
Cell lysates were prepared, and steady-state APP levels were examined using 4-12% gradient-gel electrophoresis and western blotting using the polyclonal antibody CT15.

[7] = test system: Notch intramembrane cleavage; assay: Notch intramembrane cleavage and NICD formation in HEK293 cells; type: cell-based; conditions: 150 μM; data not shown
Source text: Two Notch-encoding vector constructs were used in examining Notch processing. These were a construct expressing a myc-tagged NH2-terminal truncated Notch-1 polypeptide (NotchΔEMV), and a construct expressing only the Notch intracellular cytoplasmic domain (NICD) (see Kopan et al. (1996) Proc Natl Acad Sci USA 93:1683-8). In the construct expressing a myc-tagged NH2-terminal truncated Notch-1 polypeptide, the start codon, a methionine at position 1726, was mutated to a valine to eliminate translation initiation.
Notch intramembrane cleavage and formation of NICD were analyzed in kidney HEK293 cells. The myc-tagged NotchΔEMV construct encoding a constitutively cleaved Notch variant was transiently transfected into HEK293 cells. […] Then they were pulse labeled with ^35S-methionine for thirty minutes and chased for two hours. Cell lysates were prepared and subjected to immunoprecipitation with monoclonal antibody 9E10. Immunoprecipitated proteins were subjected to SDS-PAGE and phosphor imaging analyses.

[8] = 100 μM, six-hour culture supernatants, read-out: % Control % Aβ42
[9] = 100 μM, six-hour culture supernatants, read-out: % Control Aβ40
[10] = 100 μM, six-hour culture supernatants, read-out: % Control Aβ42
[11] = cell cultures, cell line and concentration not stated
[12] = Tg2576 mice, three month-old, 50 mg/kg/day orally for three days, SDS-soluble, mean ± SD
[13] = Tg2576 mice, treatment for three days, 50 mg/kg/day
[14] = six-hour culture supernatants, read-out: % Control % Aβ42
[15] = six-hour culture supernatants, read-out: % Control Aβ40
[16] = six-hour culture supernatants, read-out: % Control Aβ42
[17] = CHO cells expressing APP751, concentrations up to 400 μM
[18] = concentration not given, six-hour culture supernatants

CC(C(=O)O)c1ccc(-c2ccccc2)c(F)c1 (racemic) [Flurbiprofen, flurbiprofen]
levels of Aβ40 production (Aβ42 production): not altered
Aβ42 levels lowered by (Aβ42 production; 100 μM): 50%

CC(=O)Oc1ccccc1C(=O)O [Aspirin, Acetylsalicylic acid]
Aβ42 secretion (Aβ42 secretion [1]; concentrations of up to 3 mM, data not shown): no reductions in Aβ42 secretion were observed
Aβ42/Aβ40 ratio (Aβ42 secretion [2]): no effect
activity at 100 µM (Aβ42 secretion [3]; [8]): 104%
activity at 100 µM (Aβ42 secretion [3]; [9]): 93%
activity at 100 µM (Aβ42 secretion [3]; [10]): 99%
Plasma [4]: 111 µM
COX-1/COX-2 selectivity# (1 = equal activity) (COX-1/COX-2): 166

Cc1ccc(-c2cc(C(F)(F)F)nn2-c2ccc(S(N)(=O)=O)cc2)cc1 [Celecoxib, celecoxib]
Plasma [4]: 0.015 µM

O=C(O)Cc1ccccc1Nc1c(Cl)cccc1Cl [Diclofenac]
total Aβ levels (Aβ42 secretion [2]; [11]): did not affect
activity at 100 µM (Aβ42 secretion [3]; [8]): 100%
activity at 100 µM (Aβ42 secretion [3]; [9]): 88%
activity at 100 µM (Aβ42 secretion [3]; [10]): 87%
Plasma [4]: 6.1 µM

CC(C(=O)O)c1ccc(-c2ccccc2)c(F)c1 (stereo not shown) [Flurbiprofen, flurbiprofen]
brain Aβ42 levels [5]: lower Aβ42 levels
activity at 100 µM (Aβ42 secretion [3]; read-out: % Control % Aβ42): 80%
activity at 100 µM (Aβ42 secretion [3]; read-out: % Control Aβ40): 93%
activity at 100 µM (Aβ42 secretion [3]; read-out: % Control Aβ42): 70%

COc1ccc2c(c1)c(CC(=O)O)c(C)n2C(=O)c1ccc(Cl)cc1 [Indomethacin, indomethacin]
total Aβ levels (Aβ42 secretion [6]): not significantly affected
accumulation of APP-CTFs (APP processing): did not cause
inhibition of Notch cleavage [7]: did not cause
activity at 100 µM (Aβ42 secretion [3]; [8]): 68%
activity at 100 µM (Aβ42 secretion [3]; [9]): 101%
activity at 100 µM (Aβ42 secretion [3]; [10]): 69%

Cc1ccc(Cl)c(Nc2ccccc2C(=O)O)c1Cl [Meclofenamic acid, meclofenamic acid]
Brain levels of Aβ40 [5, 12]: 2932 ± 289 fmol/gm
Brain levels of Aβ42 [5, 12]: 679 ± 343 fmol/gm
% Aβ42 in brain ([5]; Tg2576 mice, three month-old, 50 mg/kg/day orally for three days, mean ± SD): 18.6 ± 8.7 %
Aβ40 levels in the brain [5, 13]: no change
reduction in Aβ42 levels in the brain [5, 13]: approximately 30%
selective reduction of Aβ42 levels in the primary screen (Aβ42 secretion [3]; 10 μM or 100 μM, classification on a 20% change): selectively reduced Aβ42 levels
selective reduction of Aβ42, time course (Aβ42 secretion [3]; CHO-APP695NL,I,his cells treated for six, twelve, or twenty-four hours): detectable at six hours
activity at 10 µM (Aβ42 secretion [3]; [14]): 37%
activity at 10 µM (Aβ42 secretion [3]; [15]): 39%
activity at 10 µM (Aβ42 secretion [3]; [16]): 13%

Cc1cnc(NC(=O)C2=C(O)c3ccccc3S(=O)(=O)N2C)s1 [Meloxicam]
activity at 10 µM (Aβ42 secretion [3]; [14]): 158%
activity at 10 µM (Aβ42 secretion [3]; [15]): 64%
activity at 10 µM (Aβ42 secretion [3]; [16]): 122%
Plasma [4]: 15 µM

CS(=O)(=O)Nc1ccc([N+](=O)[O-])cc1OC1CCCCC1 [NS-398]
Aβ42/Aβ40 ratios (Aβ42 secretion [2]; [11]): did not affect
total Aβ levels (Aβ42 secretion [2]; [11]): did not affect
Aβ42/Aβ40 ratio (Aβ42 secretion [2]): no effect
activity at 10 µM (Aβ42 secretion [3]; [14]): 132%
activity at 10 µM (Aβ42 secretion [3]; [15]): 101%
activity at 10 µM (Aβ42 secretion [3]; [16]): 146%
COX-1/COX-2 selectivity# (1 = equal activity) (COX-1/COX-2): .07

COc1ccc2cc([C@H](C)C(=O)O)ccc2c1 [Naproxen, naproxen]
total Aβ levels (Aβ42 secretion [1]; [17]): did not affect total Aβ levels
activity at 100 µM (Aβ42 secretion [3]; [8]): 104%
activity at 100 µM (Aβ42 secretion [3]; [9]): 107%
activity at 100 µM (Aβ42 secretion [3]; [10]): 112%

C[C@@H](C(=O)O)c1ccc(-c2ccccc2)c(F)c1 [R-flurbiprofen, (2R)-2-(2-Fluoro-1,1′-biphenyl-4-yl)propanoic acid]
brain Aβ42 levels ([5]; 100 mg/kg/day): more effective at lowering brain Aβ42 in this acute dosing paradigm than S-flurbiprofen; also recorded: lower Aβ42 levels
levels of Aβ40 production (Aβ42 production): not altered
Aβ42 levels lowered by (Aβ42 production; 10 μM): 20%
Aβ42 levels lowered by (Aβ42 production; 100 μM): 49%

CS(=O)(=O)c1ccc(C2=C(c3ccccc3)C(=O)OC2)cc1 [Rofecoxib, rofecoxib]
Aβ42/Aβ40 ratio (Aβ42 secretion [1]; CHO cells expressing APP751, 20 μM): not seen
Aβ42/Aβ40 ratio (Aβ42 secretion [2]): no effect
Plasma [4]: 0.003 µM
COX-1/COX-2 selectivity# (1 = equal activity) (COX-1/COX-2): .001

C[C@H](C(=O)O)c1ccc(-c2ccccc2)c(F)c1 [S-flurbiprofen]
levels of Aβ40 production (Aβ42 production): not altered
Aβ42 levels lowered by (Aβ42 production; 100 μM): 58%

CC1=C(CC(=O)O)c2cc(F)ccc2/C1=C\c1ccc(S(C)(=O)=O)cc1 [Sulindac Sulfone, sulindac sulfone]
Aβ42/Aβ40 ratios (Aβ42 secretion [1]; [17]): no changes in Aβ42/Aβ40 ratios were observed
% Control % Aβ42 (Aβ42 secretion [3]; [18]): 92%
% Control Aβ40 (Aβ42 secretion [3]; [18]): 109%
% Control Aβ42 (Aβ42 secretion [3]; [18]): 97%
